The target of one assay is T1, H3 receptor (Cavia porcellus, UniProt Q9JI35).
T1 construct: The source of the H3 receptors in this experiment was guinea pig brain; from tissue; host or cells: guinea pig brain membranes
Put plainly: H3 Receptor Binding Assay. The arrangement: species or system guinea pig. The settings on record: for inhibition at 2 µg/mL: read-out: % inhibition (of specific binding of radioactive ligand). Here is the method: The source of the H3 receptors in this experiment was guinea pig brain. The animals used weighted 400-600 g. The tissue was homogenized using a Polytron in a solution of 50 mM Tris, pH 7.5. The final concentration of tissue in the homogenization buffer was 10% w/v. The homogeneates were centrifuged at 1000×g for 10 min. in order to remove clumps of tissue and debris. The resulting supernatants were then centrifuged at 50,000×g for 20 min. in order to sediment the membranes, which were next washed 3 times in homogenization buffer (50,000×g for 20 min. each). The membranes were frozen and stored at -70° C. until needed.
All compounds to be tested were dissolved in DMSO and then diluted into the binding buffer (50 mM Tris, pH 7.5) such that the final concentration was 2 μg/mL with 0.1% DMSO. Membranes were then added (400 μg of protein) to the reaction tubes. The reaction was started by the addition of 3 nM [^3 H]R-α-methylhistamine (8.8 CVmmol) or [^3 H]-N-methylhistamine (80 Cvmmol) and incubated at 30° for 30 min.

Another assay concerns H3 receptors. The conditions noted are these: H3 receptors in rat brain; cited from earlier work.
[1] abbreviates: guinea pig brain membranes, [3H]R-α-methylhistamine or [3H]-N-methylhistamine, 30°, 30 min, read-out: H3 Binding Ki.

pKi: −log10 of the molar value. Where two headings read alike, the source gives them in different places.

T1 sequence (Q9JI35 whole entry): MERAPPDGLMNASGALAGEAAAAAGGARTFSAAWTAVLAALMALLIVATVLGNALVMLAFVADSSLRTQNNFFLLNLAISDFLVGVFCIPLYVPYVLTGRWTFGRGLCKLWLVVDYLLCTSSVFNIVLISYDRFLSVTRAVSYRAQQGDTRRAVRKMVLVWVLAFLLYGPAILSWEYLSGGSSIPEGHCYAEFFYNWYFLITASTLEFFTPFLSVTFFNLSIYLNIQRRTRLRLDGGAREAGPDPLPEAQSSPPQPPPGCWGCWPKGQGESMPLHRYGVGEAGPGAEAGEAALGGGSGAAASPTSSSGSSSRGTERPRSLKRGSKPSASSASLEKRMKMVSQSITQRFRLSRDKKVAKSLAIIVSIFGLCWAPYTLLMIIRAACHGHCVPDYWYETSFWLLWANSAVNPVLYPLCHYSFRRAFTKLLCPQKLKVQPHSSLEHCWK

A word on the pKi: it is the negative decadic logarithm of the Ki, by convention in mol/L. In the case of `CC1(C)NCCC1c1c[nH]cn1` (stereo not shown), the negative logarithm of the Ki (pKi) at H3 receptor (setting [1]) is 7.18.

Regarding `C[C@@H]1NCC[C@H]1c1c[nH]cn1` (relative stereo), the pKi on H3 receptor (setting [1]) is 8.22. In the case of `CC1(c2c[nH]cn2)CCNC1` (stereo not shown), the pKi at H3 receptor (setting [1]) was 6.77. Regarding `C[C@@H]1C[C@@H](c2c[nH]cn2)CN1` (relative stereo), the pKi at H3 receptor (setting [1]) is 7.12. One may read the inhibition as the relative decrease from the control value, in per cent. With `c1ccc(C[C@@H]2NCC[C@H]2c2c[nH]cn2)cc1` (relative stereo), the inhibition at 2 µg/mL at H3 receptor amounted to 7%.

With `CCCCC[C@@H]1CNC[C@@H]1c1c[nH]cn1` (relative stereo), the pKi on H3 receptor was 7.11. `CC[C@@H]1CNC[C@H]1c1c[nH]cn1` (relative stereo): at H3 receptor (setting [1]), the negative-log Ki (pKi) was 6.82. Regarding `c1nc(CC2CCCN2)c[nH]1` (stereo not shown), at H3 receptor (setting [1]), the pKi was 6.96.

As to `CCCCC[C@@H]1CNC[C@H]1c1c[nH]cn1` (relative stereo), the pKi on H3 receptor (setting [1]) is 6.35. Same read-out and setting: as for `C[C@@H]1CNC[C@H]1c1cnc[nH]1` (relative stereo), the figure is 8.10; as for `c1nc(C2CCNC2)c[nH]1` (stereo not shown), 8.52.

For the compound `CC1(C)CNCC1c1c[nH]cn1` (stereo not shown), the inhibition at 2 µg/mL at H3 receptor (at a concentration of 2 μg/mL, guinea pig brain membranes) came to 68%. Regarding `C[C@@H]1NC[C@H]1c1c[nH]cn1` (relative stereo), the pKi at H3 receptor (setting [1]) is 8.15. Same read-out and setting: as for `c1ccc(CC[C@@H]2NCC[C@@H]2c2c[nH]cn2)cc1` (relative stereo), the figure is 6.22. As for `NCCc1c[nH]cn1` [histamine], the “maximum inhibition of release” value in the assay with H3 receptors is recorded as “approximately 60%”.

On to `CN1CCC(Cc2c[nH]cn2)C1` (stereo not shown), for which the pKi on H3 receptor (setting [1]) was 8.52.

The values are drawn from patent US5463074A, “Imidazolyl or imidazoylalkyl substituted with a four or five membered nitrogen containing heterocyclic ring” (Schering Corporation, priority 1994, dated 1995).
